# Test results as given in ChEMBL document CHEMBL1138674, “Validation of automated docking programs for docking and database screening against RNA drug targets” (J Med Chem, 2004).
# Experiment: Dissociation constant of the compound
# Assay type: physicochemical
row,Molecule,Kd
1,N=C(N)NCCC[C@H](N)C(=O)O (stereo in doubt; form 1) [ARGININE],60 µM
2,NC[C@@H]1O[C@H](O[C@H]2[C@@H](O)[C@H](O[C@@H]3[C@@H](O)[C@H](N)C[C@H](N)[C@H]3O[C@H]3O[C@H](CN)[C@@H](O)[C@H](O)[C@H]3N)O[C@@H]2CO)[C@H](N)[C@@H](O)[C@@H]1O (stereo in doubt; form 2) [FRAMYCETIN],0.1 µM
3,Cc1cc2nc3c(=O)[nH]c(=O)nc-3n(C[C@H](O)[C@H](O)[C@H](O)COP(=O)(O)O)c2cc1C [RIBOFLAVIN 5'-PHOSPHATE],0.5 µM
4,GENTAMICIN,0.01 µM
5,NC[C@H]1O[C@H](O[C@H]2[C@H](O)[C@@H](O[C@H]3O[C@H](CO)[C@@H](O)[C@H](N)[C@H]3O)[C@H](N)C[C@@H]2N)[C@H](N)C[C@@H]1O [TOBRAMYCIN],0.0009 µM
6,N=C(N)NCCC[C@H](N)C(=O)O (stereo in doubt; form 2) [ARGININE],1000 µM
7,Cn1c(=O)c2[nH]cnc2n(C)c1=O [THEOPHYLLINE],0.4 µM
8,NC[C@@H]1O[C@H](O[C@H]2[C@@H](O)[C@H](O[C@@H]3[C@@H](O)[C@H](N)C[C@H](N)[C@H]3O[C@H]3O[C@H](CN)[C@@H](O)[C@H](O)[C@H]3N)O[C@@H]2CO)[C@H](N)[C@@H](O)[C@@H]1O (stereo in doubt; form 1) [FRAMYCETIN],1 µM
9,CC(=O)c1ccc2c(c1)N(CCCN(C)C)c1ccccc1S2 [ACEPROMAZINE],0.1 µM
10,NC[C@@H]1O[C@H](O[C@H]2[C@@H](O)[C@H](O[C@@H]3[C@@H](O)[C@H](N)C[C@H](N)[C@H]3O[C@H]3O[C@H](CO)[C@@H](O)[C@H](O)[C@H]3N)O[C@@H]2CO)[C@H](N)[C@@H](O)[C@@H]1O [PAROMOMYCIN],0.2 µM
11,NC(=O)NCCC[C@H](N)C(=O)O [L-CITRULLINE],68 µM
12,NC[C@H]1O[C@H](O[C@H]2[C@H](O)[C@@H](O)[C@H](N)C[C@@H]2N)[C@H](N)[C@@H](O)[C@@H]1O [NEAMINE],1 µM
13,O=C(O)CCCC[C@@H]1SC[C@@H]2NC(=O)N[C@@H]21 [BIOTIN],6 µM
14,Nc1ncnc2c1ncn2[C@@H]1O[C@H](COP(=O)(O)O)[C@@H](O)[C@H]1O [ADENOSINE PHOSPHATE],2.7 µM
